Measurements published in the NIST ThermoML archive (doi:10.1016/j.fluid.2014.06.024).

Experiment: molar heat capacity at constant pressure; xn = mol fraction of the nth substance listed
Details: 101 kPa, Liquid, Small sample (50 mg) DSC

C1CCOCC1 [tetrahydropyran] + Cc1ccccc1
molar heat capacity at constant pressure [J/K/mol]
Details | 298.15 K | 303.15 K | 308.15 K
x1 = 0.0937 | 157 | 158.5 | 160.08
x1 = 0.1369 | 156.86 | 158.39 | 159.99
x1 = 0.1932 | 156.64 | 158.18 | 159.81
x1 = 0.2308 | 156.46 | 158.01 | 159.65
x1 = 0.2894 | 156.15 | 157.71 | 159.37
x1 = 0.3187 | 155.98 | 157.54 | 159.22
x1 = 0.3507 | 155.79 | 157.35 | 159.04
x1 = 0.3916 | 155.52 | 157.09 | 158.79
x1 = 0.4206 | 155.32 | 156.9 | 158.61
x1 = 0.4618 | 155.02 | 156.61 | 158.34
x1 = 0.4906 | 154.81 | 156.4 | 158.14
x1 = 0.5137 | 154.63 | 156.23 | 157.98
x1 = 0.5517 | 154.32 | 155.94 | 157.71
x1 = 0.5907 | 154 | 155.62 | 157.42
x1 = 0.6208 | 153.74 | 155.38 | 157.19
x1 = 0.6623 | 153.37 | 155.02 | 156.86
x1 = 0.6987 | 153.03 | 154.69 | 156.55
x1 = 0.7135 | 152.89 | 154.56 | 156.42
x1 = 0.751 | 152.52 | 154.2 | 156.08
x1 = 0.7917 | 152.1 | 153.79 | 155.68
x1 = 0.8246 | 151.75 | 153.44 | 155.34
x1 = 0.8516 | 151.45 | 153.14 | 155.05
x1 = 0.8914 | 150.99 | 152.67 | 154.58
x1 = 0.9123 | 150.74 | 152.41 | 154.32
